# According to publication PMC6268546, “A PAMPA Assay as Fast Predictive Model of Passive Human Skin Permeability of New Synthesized Corticosteroid C-21 Esters” (Molecules, 2012):
# Where “and” joins values, the source holds several entries; their conditions need not be identical. Identical values can stand only once.
# Legend:
# [1] = PAMPA test (skin permeability model); conditions: for permeability coefficient log Pe / permeation parameter CA(t)/CD(0) / retention factor R (membrane retention): 70% silicone oil-30% IPM membrane, 7 h incubation, 100 μM in 5% DMSO phosphate buffer pH 7, triplicate mean; for Papp at 7 h, 100 μM: PAMPA, pH 7
# Description: The study was performed in triplicate and the results are presented as mean values. After the PAMPA tests was performed, a HPLC method was used to measure the concentrations of the investigated corticosteroids: the initial concentration–CD(0) in the starting solution, the residual concentration–CD(t) in the donor compartment (7 h after incubation) and the transferred concentration–CA(t) in the acceptor compartment (7 h after incubation). The assay was performed using the previously described HPLC method with mobile phase modification for determination of standard corticosteroids. The mobile phase modification was introduced to achieve complete separation standard corticosteroids peak from DMSO peak, which was used as cosolvent. DMSO was used as cosolvent with the aim of increasing the corticosteroid C-21 esters’ solubility. DMSO is one of the earliest and most widely studied penetration enhancers for transdermal drug delivery systems.
# On the basis of the initial (100 μM) and calculated residual and transferred concentrations according to peak area comparison at zero time t0, the retention factors–R and permeability coefficients–logPe of investigated corticosteroids were obtained.
# Phosphate buffer (pH = 7) was prepared by dissolving NaH2PO4·H2O (1.167 g) and Na2HPO4·7H2O (3.093 g) in water (1000 mL) with the fixed total concentration of 20 mM. The 5% DMSO solution were prepared dissolving DMSO in phosphate buffer. The corticosteroid solutions were prepared dissolving the investigated corticosteroid standards as well as new synthesized corticosteroid C-21 esters in 5% DMSO solution. […] An aliquot of previously prepared mixture (3.5 mL, 7 mL silicone oil and 3 mL IPM) was transferred into a 10 mL volumetric flask, dissolved and fill up to mark with n-hexane.
# Permeation experiments were carried out in hydrophobic PVDF 96-well filter plates (Millipore, Molsheim, France). […] Next, in each well of acceptor plate, 5% DMSO solution (400 μL) was transferred with an automatic pipette and covered by the donor plate, creating a PAMPA sandwich. In each well of the donor plate solutions of the tested corticosteroid in 5% DMSO solution (100 μM, 300 μL) was transferred by the use of an automatic pipette. Each substance was measured in triplicate at iso-pH conditions (the same pH value in donor and receptor compartment). The donor plate was covered to prevent evaporation and the whole system set up to interact with the vibratory mixer. After 7 h, PAMPA sandwich was removed from the mixer and vibration, and using the HPLC method the concentration of the investigated substances in the donor and receptor compartments were determined. The HPLC method used was as previously described but with some necessary modifications. A mobile phase of methanol–water (75:25 v/v) was used for analysis of corticosteroid C-21 esters, while the mobile phase methanol–water (50:50 v/v) was used for the analysis of unesterified corticosteroids to increase their retention time and prevent overlapping with the DMSO peak. Other HPLC parameters were as previously described. The concentrations of each tested corticosteroid in the appropriate time interval in the donor and acceptor compartments were calculated using the method of comparing the peak area of the initial concentration at zero time t0.
# The values of permeability coefficients–logPe and retention factors–R of examined corticosteroids were calculated using equations (2) and (3). The retention factor, R can be defined as the mole fraction retained in the membrane and in the microplates (i.e., filters and plate materials): [drawing 1] (2) where CA(t)/CD(0) represents the amount of compound that reached the acceptor compartment after incubation time t (for VA = VD): […]
# [2] = test system: croton oil induced mice ear edema; conditions: 4 h after application, at ED50 of FA (28 μM); cited from earlier work
# [3] = approximate logKp (permeability coefficient through human skin) calculated from logPe by equation (1); conditions: logKp = 1.34 logPe + 0.28, from PAMPA logPe
# Excerpt: Ottaviani and coworkers predicted skin permeation of numerous compounds applying a new membrane (70% silicone oil and 30% IPM) in the PAMPA test and presented permeate classifications on the basis of available literature permeability coefficients through human skin, logKp.
# The proposed equation for correlation between logKp and logPe for 31 investigated compounds was: […]
Compound,"Papp at 7 h, 100 μM [1]","logKp (approximate, calculated) [3]",permeation parameter CA(t)/CD(0) ([1]; listed as mometasone furoate),retention factor R (membrane retention) ([1]; listed as mometasone furoate),permeability coefficient log Pe [1],permeation parameter CA(t)/CD(0) [1],retention factor R (membrane retention) [1],relative anti-inflammatory activity (reduction of mass edema) in comparison to FA (100%) [2],"permeate classification (groups I-III) from R versus CA(t)/CD(0) ([1]; relationship between retention factors and permeation parameters, Figure 2)"
"CCOC(CC)C(=O)OCC(=O)C1(O)C(C)CC2C3CCC4=CC(=O)C=CC4(C)C3(F)C(O)CC21C (centres unmarked) [DEX-21-EB, dexamethasone 21-(2′-ethoxybutyrate)]",–,–,–,–,−4.58 ± 0.13 cm/s,33.4 ± 1.2%,11.3 ± 3.5%,–,–
"CCOC(C)C(=O)OCC(=O)C1(O)C(C)CC2C3CCC4=CC(=O)C=CC4(C)C3(F)C(O)CC21C (centres unmarked) [DEX-21-EP, dexamethasone 21-(2′-ethoxypropionate)]",–,–,–,–,–,31.6 ± 0.6%,<1%,–,–
"CCC(OC)C(=O)OCC(=O)C1(O)C(C)CC2C3CCC4=CC(=O)C=CC4(C)C3(F)C(O)CC21C (centres unmarked) [DEX-21-MB, dexamethasone 21-(2′-methoxybutyrate)]",–,–,–,–,−4.58 ± 0.15 cm/s,37.4 ± 1.5%,<1%,–,–
"COC(C)C(=O)OCC(=O)C1(O)C(C)CC2C3CCC4=CC(=O)C=CC4(C)C3(F)C(O)CC21C (centres unmarked) [DEX-21-MP, dexamethasone 21-(2′-methoxypropionate)]",–,–,–,–,−4.88 ± 0.17 cm/s,23.8 ± 1.5%,<1%,–,–
"CC(Oc1ccccc1)C(=O)OCC(=O)C1(O)C(C)CC2C3CCC4=CC(=O)C=CC4(C)C3(F)C(O)CC21C (centres unmarked) [DEX-21-PhP, dexamethasone 21-(2′-phenoxypropionate)]",–,–,–,–,–,4.1 ± 1.1%,86.5 ± 4.2%,–,–
"CCOC(CC)C(=O)OCC(=O)C12OC(C)(C)OC1CC1C3CC(F)C4=CC(=O)C=CC4(C)C3(F)C(O)CC12C (centres unmarked) [FA-21-EB, fluocinolone acetonide 21-(2′-ethoxybutyrate)]",–,–,–,–,−4.82 ± 0.10 cm/s,7.2 ± 0.9%,72.8 ± 2.6%,60%,–
"CCOC(C)C(=O)OCC(=O)[C@@]12OC(C)(C)O[C@@H]1C[C@H]1[C@@H]3C[C@H](F)C4=CC(=O)C=C[C@]4(C)[C@@]3(F)[C@@H](O)C[C@@]12C (some centres unmarked) [FA-21-EP, fluocinolone acetonide 21-(2′-ethoxypropionate)]",–,–,–,–,−4.52 ± 0.19 cm/s,22.2 ± 1.6%,45.8 ± 4.1%,less than 10%,–
"CCC(OC)C(=O)OCC(=O)C12OC(C)(C)OC1CC1C3CC(F)C4=CC(=O)C=CC4(C)C3(F)C(O)CC12C (centres unmarked) [FA-21-MB, fluocinolone acetonide 21-(2′-methoxybutyrate)]",–,–,–,–,−4.65 ± 0.12 cm/s,18.0 ± 1.3%,47.2 ± 3.4%,–,–
"COC(C)C(=O)OCC(=O)[C@@]12OC(C)(C)O[C@@H]1C[C@H]1[C@@H]3C[C@H](F)C4=CC(=O)C=C[C@]4(C)[C@@]3(F)[C@@H](O)C[C@@]12C (some centres unmarked) [FA-21-MP, fluocinolone acetonide 21-(2′-methoxy-propionate)]",–,–,–,–,−4.64 ± 0.17 cm/s,23.1 ± 1.4%,34.1 ± 3.5%,108.12%,–
"CC(Oc1ccccc1)C(=O)OCC(=O)C12OC(C)(C)OC1CC1C3CC(F)C4=CC(=O)C=CC4(C)C3(F)C(O)CC12C (centres unmarked) [FA-21-PhP, fluocinolone acetonide 21-(2′-phenoxypropionate)]",–,–,–,–,−5.68 ± 0.15 cm/s,1.3 ± 0.6%,71.9 ± 2.8%,65%,–
"C[C@]12CCC(=O)C=C1CC[C@@H]1[C@@H]2[C@@H](O)C[C@@]2(C)[C@H]1CC[C@]2(O)C(=O)CO [H, hydrocortisone, reference compound]",–,–,–,–,–,–,1.5 ± 0.9%,–,–
"CCOC(CC)C(=O)OCC(=O)C12OC(C)(C)OC1CC1C3CCC4=CC(=O)C=CC4(C)C3(F)C(O)CC12C (centres unmarked) [TA-21-EB, triamcinolone acetonide 21-(2′-ethoxybutyrate)]",–,–,–,–,−4.87 ± 0.21 cm/s,7.3 ± 1.6%,70.1 ± 3.4%,–,–
"CCOC(C)C(=O)OCC(=O)C12OC(C)(C)OC1CC1C3CCC4=CC(=O)C=CC4(C)C3(F)C(O)CC12C (centres unmarked) [TA-21-EP, triamcinolone acetonide 21-(2′-ethoxypropionate)]",–,–,–,–,−4.66 ± 0.15 cm/s,23.0 ± 1.8%,32.4 ± 1.7%,–,–
"CCC(OC)C(=O)OCC(=O)C12OC(C)(C)OC1CC1C3CCC4=CC(=O)C=CC4(C)C3(F)C(O)CC12C (centres unmarked) [TA-21-MB, triamcinolone acetonide 21-(2′-methoxybutyrate)]",–,–,–,–,−4.85 ± 0.23 cm/s,16.9 ± 2.0%,39.3 ± 4.1%,–,–
"COC(C)C(=O)OCC(=O)C12OC(C)(C)OC1CC1C3CCC4=CC(=O)C=CC4(C)C3(F)C(O)CC12C (centres unmarked) [TA-21-MP, triamcinolone acetonide 21-(2′-methoxypropionate)]",–,–,–,–,−4.45 ± 0.16 cm/s,38.1 ± 1.6%,13.5 ± 4.1%,–,–
"CC(Oc1ccccc1)C(=O)OCC(=O)C12OC(C)(C)OC1CC1C3CCC4=CC(=O)C=CC4(C)C3(F)C(O)CC12C (centres unmarked) [TA-21-PhP, triamcinolone acetonide 21-(2′-phenoxypropionate)]",–,–,–,–,−4.07 ± 0.14 cm/s,27.1 ± 1.4%,51.1 ± 3.8%,–,–

# Now from value to molecule, other results behind:
"Papp at 7 h, 100 μM [1]","logKp (approximate, calculated) [3]",permeation parameter CA(t)/CD(0) ([1]; listed as mometasone furoate),retention factor R (membrane retention) ([1]; listed as mometasone furoate),Compound,permeability coefficient log Pe [1],permeation parameter CA(t)/CD(0) [1],retention factor R (membrane retention) [1],relative anti-inflammatory activity (reduction of mass edema) in comparison to FA (100%) [2],"permeate classification (groups I-III) from R versus CA(t)/CD(0) ([1]; relationship between retention factors and permeation parameters, Figure 2)"
5.5 ×10⁻⁶ cm/s,−6.77,–,–,"CC1(C)O[C@@H]2C[C@H]3[C@@H]4C[C@H](F)C5=CC(=O)C=C[C@]5(C)[C@@]4(F)[C@@H](O)C[C@]3(C)[C@]2(C(=O)CO)O1 [FA, fluocinolone acetonide, reference compound]",–,6.7 ± 1.2%,<1%,100%,–
8.51 ×10⁻⁶ cm/s,−6.51,–,–,"CC(=O)OCC(=O)[C@@]1(O)CC[C@H]2[C@@H]3CCC4=CC(=O)CC[C@]4(C)[C@H]3[C@@H](O)C[C@@]21C [H-21-Ac, hydrocortisone acetate, reference compound]",–,10% and 10.0 ± 1.7%,< 1%,–,–
79.4 ×10⁻⁶ cm/s,−5.21,7.7%,81%,"C[C@@H]1C[C@H]2[C@@H]3CCC4=CC(=O)C=C[C@]4(C)[C@@]3(Cl)[C@@H](O)C[C@]2(C)[C@@]1(OC(=O)c1ccco1)C(=O)CCl [MF, mometasone furoate, reference compound]",–,7.7 ± 1.5%,81.0 ± 2.9%,–,group III (having high membrane retention and low permeation (group III))
9.77 ×10⁻⁶ cm/s,−6.43,–,–,"CC1(C)O[C@@H]2C[C@H]3[C@@H]4CCC5=CC(=O)C=C[C@]5(C)[C@@]4(F)[C@@H](O)C[C@]3(C)[C@]2(C(=O)CO)O1 [TA, triamcinolone acetonide, reference compound]",–,10.8 ± 1.5%,4.7 ± 2.3%,–,–
